The source made the active and inactive calls. The rule behind the calls is not given here.
Key:
[1] = Photostability of compound in TBS assessed as percentage of photodegradation measured every 10 mins for 1 hr at 17.5 mW/cm'2 irradiation by UV-visible spectrophotometry
[2] = tested on: Calf thymus DNA; experiment: Competitive binding affinity to calf thymus DNA assessed as binding constant in presence of ethidium bromide incubated for 10 mins by UV-visible spectrophotometry; format: nucleic-acid assay; details: Bos taurus
[3] = tested on: DNA; experiment: Induction of Escherichia coli plasmid pBR322 DNA cleavage assessed as increase in nicked circular DNA at 50 uM in presence of light irradiation and incubated for 1 hr by agarose gel electrophoresis; format: nucleic-acid assay
[4] = tested on: DNA; experiment: Induction of Escherichia coli plasmid pBR322 DNA cleavage assessed as decrease in supercoiled DNA at 50 uM in presence of light irradiation and incubated for 1 hr by agarose gel electrophoresis; format: nucleic-acid assay
[5] = tested on: DNA; experiment: Induction of Escherichia coli plasmid pBR322 DNA cleavage assessed as increase in nicked circular DNA in presence of light irradiation and incubated for 1 hr by agarose gel electrophoresis; format: nucleic-acid assay
[6] = target: T1, DNA topoisomerase 1 (Homo sapiens) (UniProt P11387); experiment: Inhibition of recombinant human topoisomerase 1 assessed as linear DNA at 50 uM incubated for 1 hr by ethidium bromide staining based agarose gel electrophoresis method relative to control
T1 sequence (whole entry): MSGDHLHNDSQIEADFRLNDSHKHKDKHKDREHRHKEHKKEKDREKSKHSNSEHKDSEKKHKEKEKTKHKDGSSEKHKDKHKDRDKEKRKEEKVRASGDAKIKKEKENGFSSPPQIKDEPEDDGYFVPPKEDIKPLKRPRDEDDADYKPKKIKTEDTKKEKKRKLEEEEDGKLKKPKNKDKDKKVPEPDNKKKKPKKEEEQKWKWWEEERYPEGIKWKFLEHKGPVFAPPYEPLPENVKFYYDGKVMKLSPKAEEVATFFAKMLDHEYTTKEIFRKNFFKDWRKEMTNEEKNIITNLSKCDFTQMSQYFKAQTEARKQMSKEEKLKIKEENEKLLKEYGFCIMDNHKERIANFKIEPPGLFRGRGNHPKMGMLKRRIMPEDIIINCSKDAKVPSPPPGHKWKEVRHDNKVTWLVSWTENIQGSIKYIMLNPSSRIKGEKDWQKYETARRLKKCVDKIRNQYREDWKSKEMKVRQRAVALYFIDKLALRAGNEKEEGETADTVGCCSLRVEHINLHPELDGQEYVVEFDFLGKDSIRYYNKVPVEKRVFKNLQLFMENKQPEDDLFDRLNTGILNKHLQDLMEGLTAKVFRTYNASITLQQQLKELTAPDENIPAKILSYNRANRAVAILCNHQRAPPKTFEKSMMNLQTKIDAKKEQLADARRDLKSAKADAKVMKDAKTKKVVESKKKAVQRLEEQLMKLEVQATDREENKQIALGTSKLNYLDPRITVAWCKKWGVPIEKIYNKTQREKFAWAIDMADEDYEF

[7] = target: T1, DNA topoisomerase 1 (Homo sapiens); experiment: Inhibition of recombinant human topoisomerase 1 at 12.50 uM incubated for 1 hr by ethidium bromide staining based agarose gel electrophoresis method relative to control
[8] = target: T1, DNA topoisomerase 1 (Homo sapiens); experiment: Inhibition of recombinant human topoisomerase 1 at 25 uM incubated for 1 hr by ethidium bromide staining based agarose gel electrophoresis method relative to control
[9] = tested on: HCT-116; experiment: Cytotoxicity against human HCT116 cells assessed as cell viability at 50 uM incubated for 24 hrs in dark by MTT assay relative to control; format: functional; details: HCT-116, 24 h, read-out: Activity
[10] = tested on: HCT-116; experiment: Phototoxicity against human HCT116 cells assessed as cell viability at 0.5 uM incubated for 24 hrs under 17.5 mW/cm2 light irradiation by MTT assay relative to control; format: functional; details: HCT-116, light or radiation study, read-out: Activity
[11] = tested on: HCT-116; experiment: Induction of apoptosis in human HCT116 cells assessed as viable cells at 5 uM incubated for 24 hrs in presence of irradiation by annexin V FITC and propidium iodide based flow cytometry (reference value: 94.8 %); format: functional; details: HCT-116, light or radiation study, read-out: Activity
[12] = tested on: HCT-116; experiment: Induction of apoptosis in human HCT116 cells assessed as early apoptotic cells at 5 uM incubated for 24 hrs in presence of irradiation by annexin V FITC and propidium iodide based flow cytometry (reference value: 3.4 %); format: functional
[13] = tested on: HCT-116; experiment: Induction of apoptosis in human HCT116 cells assessed as late apoptotic cells at 5 uM incubated for 24 hrs in presence of irradiation by annexin V FITC and propidium iodide based flow cytometry (reference value: 1.6 %); format: functional
[14] = target: T1, DNA topoisomerase 1 (Homo sapiens); experiment: Inhibition of recombinant human topoisomerase 1 assessed as supercoiled pBR322 DNA at 25 uM incubated for 1 hr by ethidium bromide staining based agarose gel electrophoresis method relative to control; parameters: scale not given: the % may be the effect or the level left
[15] = tested on: DNA; experiment: Induction of Escherichia coli plasmid pBR322 DNA cleavage assessed as increase in nicked circular DNA at 3.125 uM in presence of light irradiation and incubated for 1 hr by agarose gel electrophoresis relative to control; format: nucleic-acid assay
[16] = tested on: DNA; experiment: Induction of Escherichia coli plasmid pBR322 DNA cleavage assessed as increase in nicked circular DNA at 6.25 to 50 uM in presence of light irradiation and incubated for 1 hr by agarose gel electrophoresis; format: nucleic-acid assay
[17] = tested on: DNA; experiment: Induction of Escherichia coli plasmid pBR322 DNA cleavage assessed as decrease in supercoiled DNA at 6.25 to 50 uM in presence of light irradiation and incubated for 1 hr by agarose gel electrophoresis relative to control; format: nucleic-acid assay; parameters: scale not given: the % may be the effect or the level left
[18] = target: T1, DNA topoisomerase 1 (Homo sapiens); experiment: Inhibition of recombinant human topoisomerase 1 assessed as supercoiled pBR322 DNA at 12.5 uM incubated for 1 hr by ethidium bromide staining based agarose gel electrophoresis method relative to control; parameters: scale not given: the % may be the effect or the level left
[19] = target: T2, DNA topoisomerase II (Homo sapiens) (UniProt P11388+Q02880); experiment: Inhibition of recombinant human topoisomerase 2 assessed as supercoiled DNA at 12.5 uM incubated for 1 hr by ethidium bromide staining based agarose gel electrophoresis method relative to control; format: protein assay; parameters: scale not given: the % may be the effect or the level left
[20] = target: T2, DNA topoisomerase II (Homo sapiens); experiment: Inhibition of recombinant human topoisomerase 2 assessed as supercoiled DNA at 25 uM incubated for 1 hr by ethidium bromide staining based agarose gel electrophoresis method relative to control; format: protein assay; parameters: scale not given: the % may be the effect or the level left
[21] = tested on: HCT-116; experiment: Induction of apoptosis in human HCT116 cells assessed as viable cells at 50 uM incubated for 24 hrs in presence of irradiation by annexin V FITC and propidium iodide based flow cytometry (reference value: 94.8 %); format: functional; details: HCT-116, light or radiation study, read-out: Activity
[22] = tested on: HCT-116; experiment: Induction of apoptosis in human HCT116 cells assessed as early apoptotic cells at 50 uM incubated for 24 hrs in presence of irradiation by annexin V FITC and propidium iodide based flow cytometry (reference value: 3.4 %); format: functional
[23] = tested on: HCT-116; experiment: Induction of apoptosis in human HCT116 cells assessed as late apoptotic cells at 50 uM incubated for 24 hrs in presence of irradiation by annexin V FITC and propidium iodide based flow cytometry (reference value: 1.6 %); format: functional
[24] = tested on: HCT-116; experiment: Induction of apoptosis in human HCT116 cells assessed as necrotic cells at 50 uM incubated for 24 hrs in presence of irradiation by annexin V FITC and propidium iodide based flow cytometry (reference value: 0.2 %); format: functional
[25] = target: T1, DNA topoisomerase 1 (Homo sapiens); experiment: Inhibition of recombinant human topoisomerase 1 assessed as supercoiled pBR322 DNA at 50 uM incubated for 1 hr by ethidium bromide staining based agarose gel electrophoresis method relative to control; parameters: scale not given: the % may be the effect or the level left

For `CC1=CC(/C=C/c2ccc(OCCCc3ccc[n+](C)c3)cc2)=[N+]2C1=C(c1ccc(OCCCc3ccc[n+](C)c3)cc1)c1c(C)cc(/C=C/c3ccc(OCCCc4ccc[n+](C)c4)cc3)n1[B-]2(F)F.[I-].[I-].[I-]`, the Drug degradation [1] was 17.7%, the Activity [2] was “inactive” and the Activity [3] was “inactive”. For the same molecule, the Activity [4] was “inactive”, the Activity [5] was “Dose-dependent effect” and the inhibition [6] was 100%. For the same molecule, the inhibition [7] was 88.5%, the inhibition [8] was 88.6% and the viability at 50 µM [9] was 67%. For the same molecule, the viability at 0.5 µM [10] was 100%, the viability at 5 µM [11] was 23% and the Activity [12] was 35.8%. For the same molecule, the Activity [13] was 30.5%.

`CC1=CC(/C=C/c2ccc(OCCCc3ccc[n+](C)c3)c(OCCCc3ccc[n+](C)c3)c2)=[N+]2C1=C(c1ccc(OCCCc3ccc[n+](C)c3)c(OCCCc3ccc[n+](C)c3)c1)c1c(C)cc(/C=C/c3ccc(OCCCc4ccc[n+](C)c4)c(OCCCc4ccc[n+](C)c4)c3)n1[B-]2(F)F.[I-].[I-].[I-].[I-].[I-].[I-]` showed an Activity [14] of 66%, a Drug degradation [1] of 18.7% and an Activity [15] of 41.5%. For the same molecule, the Activity [16] was “Active”, the Activity [17] was 100% and the Activity [18] was 64.2%. It also gave an inhibition [7] of 89.1%, an inhibition [8] of 89.4% and an Activity [19] of 77.5%. For the same molecule, the Activity [20] was 81.8%, the viability at 50 µM [9] was 100% and the viability at 0.5 µM [10] was 100%. The viability at 50 µM [21] was 93.7%, the Activity [22] was 4.8% and the Activity [23] was 1.4%. For the same molecule, the Activity [24] was 0.2% and the Activity [25] was 69.5%.
